From patent US20260137682A1, “METHOD FOR TREATING PNEUMOCONIOSIS” (Beijing Tide Pharmaceuticals Co., Ltd., priority 2022, published 2026)

Assays:
Assay type in all cases: in vivo
silicosis model mice [1] = experiment: Inflammation scoring (H&E staining, Szapiel's criteria) in lung tissue of silicosis model mice; conditions: oral gavage, 28 days, score 0 to 3, model group 2.22 ± 0.28
Protocol: (§1) After acclimatization, 6-8-week-old male C57BL/6J mice were intratracheally instilled 40 μL of SiO2 suspension (600 mg/kg) on Day 1 (D1) to establish the silicosis model. On the same day (D1), the animals were randomly divided into 3 groups based on body weight and administered either the vehicle (model group) or Compound 007 (100 mg/kg or 150 mg/kg, once daily) via oral gavage for 28 consecutive days. A normal control group was also established, intratracheally instilled 40 μL of saline on D1 and orally administered sterile water.
Lung tissues from all mice were collected, sectioned, and subjected to Masson's Trichrome staining and H&E staining for silicotic nodule scoring and inflammation scoring. Silicotic nodule scoring was performed using the King's five-point scale [Zhujie Cao, et al., Acta Pharmacologica Sinica, 2021], where the severity of silicotic nodules in lung tissue was scored from 0 to 5, with higher scores indicating more severe nodulation. […]

silicosis model mice [2] = experiment: Silicotic nodule scoring (Masson's Trichrome staining, King's five-point scale) in lung of silicosis model mice; conditions: 28 days; for silica-induced nodule formation and collagen fiber deposition: oral, Masson's Trichrome staining; for Silicotic Nodule Score (Mean ± SEM): oral gavage, score 0 to 5, model group 1.08 ± 0.27
Protocol: as §1
Lung tissues from all mice were collected, sectioned, and subjected to Masson's Trichrome staining and H&E staining for silicotic nodule scoring and inflammation scoring. Silicotic nodule scoring was performed using the King's five-point scale [Zhujie Cao, et al., Acta Pharmacologica Sinica, 2021], where the severity of silicotic nodules in lung tissue was scored from 0 to 5, with higher scores indicating more severe nodulation. H&E pathological scoring followed Szapiel's inflammation scoring criteria, where the degree of inflammatory cell infiltration in lung tissue was scored from 0 to 3, with higher scores indicating greater inflammation in the lung tissue (0: no inflammation or alveolitis: 1: mild, mononuclear cell infiltration with thickened alveolar septa, localized involvement, pleural lesions involving less than 20% of the lung, and well-preserved alveolar structure; 2: moderate, more extensive alveolitis involving 20%-50% of the lung, primarily pleural lesions; 3: severe, diffuse alveolitis involving over 50% of the lung, occasionally with mononuclear cell infiltration in the alveoli and interstitium and/or some hemorrhagic areas within the alveoli).

TGF-β = TGF-β detection in BALF of silicosis model mice; conditions: oral, 28 days, vs model group
Protocol: as §1
After the administration was completed, the animals were euthanized, and bronchoalveolar lavage fluid (BALF) was collected from randomly selected animals in each group for TGF-β detection.

silicosis model mice [3] = experiment: Pulmonary function indices in SiO2-induced silicosis model mice; conditions: oral, 28 days, 2 h after final administration, vs model group
Protocol: as §1
Two hours after the final administration, mouse pulmonary function indices were measured.

silicosis model mice [4] = experiment: Mortality during 28-day dosing in silicosis model mice; conditions: 100 mg/kg or 150 mg/kg once daily, oral gavage, 28 consecutive days
Protocol: as §1

Cn1c(C(=O)N2CC(F)(F)C2)cc2ccc(-c3nccc(Nc4ccc(-c5cn[nH]c5)cc4)n3)cc21 [Compound 007]
Inflammation Score (Mean ± SEM) (silicosis model mice [1]; 100 mg/kg once daily): 1.22 ± 0.15
Inflammation Score (Mean ± SEM) (silicosis model mice [1]; 150 mg/kg once daily): 1.22 ± 0.22
silica-induced nodule formation and collagen fiber deposition (silicosis model mice [2]; 100 mg/kg daily): reduced
Silicotic Nodule Score (Mean ± SEM) (silicosis model mice [2]; 100 mg/kg once daily): 0.32 ± 0.06
silica-induced nodule formation and collagen fiber deposition (silicosis model mice [2]; 150 mg/kg daily): reduced
Silicotic Nodule Score (Mean ± SEM) (silicosis model mice [2]; 150 mg/kg once daily): 0.35 ± 0.09
TGF-β levels in BALF (TGF-β; 100 mg/kg daily, p<0.001): significantly reduced
TGF-β levels in BALF (TGF-β; 150 mg/kg daily, p<0.0001): significantly reduced
inspiratory capacity (silicosis model mice [3]; 100 mg/kg daily, p<0.05): significantly increased
respiratory system elastance (silicosis model mice [3]; 100 mg/kg daily, p<0.05): decreased
respiratory system resistance (silicosis model mice [3]; 100 mg/kg daily, p<0.05): reduced
inspiratory capacity (silicosis model mice [3]; 150 mg/kg daily, p<0.01): significantly increased
respiratory system elastance (silicosis model mice [3]; 150 mg/kg daily, p<0.05): decreased
respiratory system resistance (silicosis model mice [3]; 150 mg/kg daily, p<0.05): reduced
mortality during the dosing period (silicosis model mice [4]): No mortality was observed
